In one assay the test system is solubilizing enzyme of HB-EGF. Briefly: Inhibition of TPA-stimulated release of HB-EGF from HT-1080 transfectant expressing HB-EGF/alkaline phosphatase fusion protein. Type of assay: cell-based, human. The following applies: HT-1080 HB-EGF-AP transfectant, TPA 60 nM for 60 min, AP activity in conditioned medium (OD405). As to the method:
Human fibrosarcoma HT-1080 stable transfectant expressing fusion protein of HB-EGF and human placental alkaline phosphatase (AP) were used for following experiments.
The cultured transfectant was treated with Trypsin-EDTA solution, and suspended in Minimum Essential Medium (without phenol red; supplemented with 10% heat-inactivated fetal calf serum; MEM) at the concentration of 1×10^5 cells/ml. Each 0.2 ml of the cell suspension was dispensed into individual wells of 96 well microplate, and incubated overnight in the CO2 incubator (37° C.). After the incubation, the conditioned medium was removed, and the wells were washed once with 0.2 ml of phosphate buffered saline. The cells were treated with 0.1 ml of compound solution [compound solutions in dimethylsulfoxide (DMSO) were diluted 100 times with MEM] for 30 min at 37° C. Then the compound solutions were removed, and cells were treated with 0.2 ml of TPA solution (120 μM) of stock solution was diluted to 60 nM with MEM) containing same concentration of the compound for 60 min at 37° C. The cells treated same procedure without compound were used as control.
After these treatments, each 0.1 ml of conditioned medium was transferred to individual wells of new 96 well microplate and incubated at 65° C. for 10 min to inactivate endogenous alkaline phosphatase. One hundred microliter of substrate solution (1 mg/ml of p-nitrophenyl phosphate in 0.01% magnesium chloride/1 M diethanolamine) for AP was added to each well and incubated for 120 min at room temperature in the dark. The OD405 of each well was measured with microplate reader. The IC50 values of the compounds were calculated from the concentration-inhibition curves.
As for `O=C(NO)C1Cc2nccnc2CN1S(=O)(=O)c1ccc(OCCCc2ccccc2)cc1` (single isomer, unassigned; (+)) [the compound(45), (+)-N-Hydroxy-6-[4-(3-phenylpropoxy)benzenesulfonyl]-5,6,7,8-tetrahydropyrido[3,4-b]pyrazine-7-carboxamide], the IC50 (as a rule, the concentration that gives 50% inhibition) is 630 nM.
The molecule `O=C(NO)C1Cc2nccnc2CN1S(=O)(=O)c1ccc(Oc2ccncc2)cc1` (racemic) [the compound(2), (±)-N-Hydroxy-6-[4-(pyridine-4-yloxy)benzenesulfonyl]-5,6,7,8-tetrahydropyrido[3,4-b]pyrazine-7-carboxamide] yielded an IC50 of 990 nM.
Consider `CSCCCOc1ccc(S(=O)(=O)N2Cc3nccnc3CC2C(=O)NO)cc1` (racemic) [the compound(10), (±)-N-Hydroxy-6-[4-(3-methylthiopropoxy)benzenesulfonyl]-5,6,7,8-tetrahydropyrido[3,4-b]pyrazine-7-carboxamide], for which the IC50 was found to be 340 nM.

Still in this assay, the particulars now being: HT-1080 HB-EGF-AP transfectant, TPA 60 nM for 60 min, AP activity in conditioned medium (OD405); read-out: IC50.
Take `CNC(=O)C(Cc1ccccc1)NC(=O)C(CC(C)C)C(C)C(=O)NO` [the compound f, 4-(N-hydroxyamino)-2 (R)-isobutyl-3-methylsuccinyl-L-phenylalanine-N-methylamide, reference compound]: the IC50 worked out at 100 nM.
The same measure, in the same setting: as for `O=C(NO)C1Cc2nccnc2CN1S(=O)(=O)c1ccc(OCCO)cc1` (single isomer, unassigned; (+)) [the compound(34), (+)-N-Hydroxy-6-[4-(2-hydroxyethoxy)benzenesulfonyl]-5,6,7,8-tetrahydropyrido[3,4-b]pyrazine-7-carboxamide], the figure is 1500 nM; as for `O=C(NO)C1Cc2nccnc2CN1S(=O)(=O)/C=C/c1ccccc1` (single isomer, unassigned; (+)) [the compound(47), (+)-N-Hydroxy-6-(2-trans-phenylethenesulfonyl)-5,6,7,8-tetrahydropyrido[3,4-b]pyrazine-7-carboxamide], 1900 nM; as for `COCCCCOc1ccc(S(=O)(=O)N2Cc3nccnc3CC2C(=O)NO)cc1` (racemic) [the compound(11), (±)-N-Hydroxy-6-[4-(methoxybutoxy)benzenesulfonyl]-5,6,7,8-tetrahydropyrido[3,4-b]pyrazine-7-carboxamide], 1400 nM.
With `COCCOc1ccc(S(=O)(=O)N2Cc3nccnc3CC2C(=O)NO)cc1` (racemic) [the compound(8), (±)-N-Hydroxy-6-[4-(2-methoxyethoxy)benzenesulfonyl]-5,6,7,8-tetrahydropyrido[3,4-b]pyrazine-7-carboxamide], the IC50 came to 840 nM.
On the same count and under the same terms, next, `Nc1ccc(S(=O)(=O)N2Cc3nccnc3CC2C(=O)NO)cc1` (single isomer, unassigned; (+)) [the compound(39), (+)-N-Hydroxy-6-(4-aminobenzenesulfonyl)-5,6,7,8-tetrahydropyrido[3,4-b]pyrazine-7-carboxamide]: 1800 nM.
Regarding `CC(C)COCCCOc1ccc(S(=O)(=O)N2Cc3nccnc3CC2C(=O)NO)cc1` (single isomer, unassigned; (+)) [the compound(26), (+)-N-Hydroxy-6-[4-(3-isobuthoxypropoxy)benzenesulfonyl]-5,6,7,8-tetrahydropyrido[3,4-b]pyrazine-7-carboxamide], the IC50 was found to be 560 nM.
Still for that read-out and setting: as for `CCOCCCOc1ccc(S(=O)(=O)N2Cc3nccnc3CC2C(=O)NO)cc1` (racemic) [the compound(12), (±)-N-Hydroxy-6-[4-(ethoxypropoxy)benzenesulfonyl]-5,6,7,8-tetrahydropyrido[3,4-b]pyrazine-7-carboxamide], the figure is 160 nM.
For the molecule `COCCCOc1ccc(S(=O)(=O)N2Cc3nccnc3CC2C(=O)NO)cc1` (racemic) [the compound(4), (±)-N-Hydroxy-6-[4-(3-methoxypropoxy)benzenesulfonyl]-5,6,7,8-tetrahydropyrido[3,4-b]pyrazine-7-carboxamide], the IC50 came out at 240 nM.
On to `O=C(NO)C1Cc2nccnc2CN1S(=O)(=O)c1ccc(OCCF)cc1` (single isomer, unassigned; (+)) [the compound(18), (+)-N-Hydroxy-6-[4-(2-fluoroethoxy)benzenesulfonyl]-5,6,7,8-tetrahydropyrido[3,4-b]pyrazine-7-carboxamide], for which the IC50 was 160 nM.
In the case of `CS(=O)(=O)CCCOc1ccc(S(=O)(=O)N2Cc3nccnc3CC2C(=O)NO)cc1` (single isomer, unassigned; (+)) [the compound(48), (+)-N-Hydroxy-6-[4-(3-methansulfonylpropoxy)benzenesulfonyl]-5,6,7,8-tetrahydropyrido[3,4-b]pyrazine-7-carboxamide], the IC50 was 1800 nM.
`CCCCCOc1ccc(S(=O)(=O)N2Cc3nccnc3CC2C(=O)NO)cc1` (racemic) [the compound(9), (±)-N-Hydroxy-6-(4-pentyloxybenzenesulfonyl)-5,6,7,8-tetrahydropyrido[3,4-b]pyrazine-7-carboxamide]: the IC50 is 460 nM.
On the same count and under the same terms, as for `CNC(=O)C(Cc1cccc2c1CCCC2)NC(=O)C(CC(C)C)C(C)C(=O)NO` [the compound b, [4-(N-hydroxyamino)-2 (R)-isobutyl-3-methylsuccinyl]-L-3-(5,6,7,8-tetrahydro-1-naphtyl)alanine-N-methylamide, reference compound], the figure is 120 nM; as for `CSc1ccc(S(=O)(=O)N2Cc3nccnc3CC2C(=O)NO)cc1` (single isomer, unassigned; (+)) [the compound(35), (+)-N-Hydroxy-6-(4-methylthiobenzenesulfonyl)-5,6,7,8-tetrahydropyrido[3,4-b]pyrazine-7-carboxamide], 1500 nM.
As to `CCOC(=O)CCCOc1ccc(S(=O)(=O)N2Cc3nccnc3CC2C(=O)NO)cc1` (single isomer, unassigned; (+)) [the compound(32), (+)-N-Hydroxy-6-[4-(3-ethoxycarbonylpropoxy)benzenesulfonyl]-5,6,7,8-tetrahydropyrido[3,4-b]pyrazine-7-carboxamide], the IC50 is 1100 nM.
Still for that read-out and setting: next, `CCCc1ccc(S(=O)(=O)N2Cc3nccnc3CC2C(=O)NO)cc1` (single isomer, unassigned; (+)) [the compound(43), (+)-N-Hydroxy-6-(4-propylbenzenesulfonyl)-5,6,7,8-tetrahydropyrido[3,4-b]pyrazine-7-carboxamide]: 1900 nM.
Still for that read-out and setting: next, `O=C(NO)C1Cc2nccnc2CN1S(=O)(=O)c1ccc(OCCCBr)cc1` (single isomer, unassigned; (+)) [the compound(24), (+)-N-Hydroxy-6-[4-(3-bromopropoxy)benzenesulfonyl]-5,6,7,8-tetrahydropyrido[3,4-b]pyrazine-7-carboxamide]: 600 nM; `COc1ccc(S(=O)(=O)N2Cc3nccnc3CC2C(=O)NO)cc1` (racemic) [the compound(1), (±)-N-Hydroxy-6-(4-methoxybenzenesulfonyl)-5,6,7,8-tetrahydropyrido[3,4-b]pyrazine-7-carboxamide]: 800 nM; `CCCCCCc1ccc(S(=O)(=O)N2Cc3nccnc3CC2C(=O)NO)cc1` (single isomer, unassigned; (+)) [the compound(38), (+)-N-Hydroxy-6-(4-hexylbenzenesulfonyl)-5,6,7,8-tetrahydropyrido[3,4-b]pyrazine-7-carboxamide]: 1700 nM.
For the molecule `COc1ccc(S(=O)(=O)N2C(C)c3nccnc3C(C)C2C(=O)NO)cc1` (stereo not drawn) [the compound(49), 7,8-cis-N-Hydroxy-5,8-dimethyl-6-(4-methoxybenzenesulfonyl)-5,6,7,8-tetrahydropyrido[3,4-b]pyrazine-7-carboxamide], the IC50 turned out to be 5600 nM.
On the same count and under the same terms, as for `CC(=O)c1ccc(S(=O)(=O)N2Cc3nccnc3CC2C(=O)NO)cc1` (single isomer, unassigned; (+)) [the compound(42), (+)-N-Hydroxy-6-(4-acetylbenzenesulfonyl)-5,6,7,8-tetrahydropyrido[3,4-b]pyrazine-7-carboxamide], the figure is 2200 nM.
Same read-out and setting: next, `CC(C)COc1ccc(S(=O)(=O)N2Cc3nccnc3CC2C(=O)NO)cc1` (single isomer, unassigned; (+)) [the compound(22), (+)-N-Hydroxy-6-(4-isobuthoxybenzenesulfonyl)-5,6,7,8-tetrahydropyrido[3,4-b]pyrazine-7-carboxamide]: 3600 nM.
Turning to `CNC(=O)C(NC(=O)C(CC(C)C)C(C)C(=O)NO)c1ccccc1` [the compound a, [4-(N-hydroxyamino)-2 (R)-isobutyl-3-methylsuccinyl]-L-phenylglycine-N-methylamide, reference compound], the IC50 stood at 430 nM.
Still for that read-out and setting: as for `CNC(=O)C(Cc1ccccc1)NC(=O)C(C(C)C)C(C)C(=O)NO` [the compound e, 4-(N-hydroxyamino)-2 (R)-isopropyl-3-methylsuccinyl-L-phenylalanine-N-methylamide, reference compound], the figure is 100 nM; as for `O=C(NO)C1Cc2nccnc2CN1S(=O)(=O)c1ccc(Oc2ccccc2)cc1` (racemic) [the compound(3), (±)-N-Hydroxy-6-(4-phenoxybenzenesulfonyl)-5,6,7,8-tetrahydropyrido[3,4-b]pyrazine-7-carboxamide], 1000 nM.

(Values after patent US20030229113A1, “Keratinocyte growth inhibitors and hydroxamic acid derivatives” (priority 2003, published 2003).)
